Laboratory results from patent publication US20160120915A1, “METHODS FOR MANIPULATING IMMUNE RESPONSES BY ALTERING MICROBIOTA” (NEW YORK UNIVERSITY, priority 2013, published 2016).
Counter-ions that a name gives are not always drawn.

Assays:
[1] = test system: intestinal microbial community; test: NOD: 16S rRNA V4 sequencing of fecal, cecal and ileal microbiota; assay type: in vivo, NOD mice; settings: for fecal microbial community structure (PCoA, unweighted unifrac): all time points
Method: Fecal pellets were collected at least weekly from weaning at 3 weeks of age until the study termination at 31 weeks of age, and stored at −20° C. until processing. DNA was extracted from fecal pellets using the PowerLyzer™ PowerSoil® DNA Isolation Kit (MoBio, Carlsbad Calif.) and stored at −20° C. Cecal and ileal samples were collected upon necropsy at 6 weeks of age, upon diabetes development, or at the termination of the experiment at […] of age, and extracted using the PowerLyzer™ PowerSoil® DNA Isolation Kit.
Fecal samples collected at 3, 6, 10, and 13 weeks of age, and cecal and ileal samples collected at 6 weeks of age were used for sequencing. The V4 region of the 16S rRNA gene was amplified using universal primers 515 forward primer (5′ GTGCCAGCMGCCGCGGTAA 3′ SEQ ID NO: 54) and 806 reverse primer (5′ […] 3′ SEQ ID NO: 55) [Escherichia coli strain 83972 sequence (greengenes accession no. prokM-SA_id:470367] linked to a 12 base Goley barcode for multiplexing (Caporaso et al., The ISME Journal 2012; 6:1621-4. Caporaso et al., Proc. Natl. Acad. Sci. USA, 2011; 108 Suppl 1:4516-22). Sequencing was performed on the Miseq platform with a 15% PhiX spike.
The sequences were analyzed using the macqiime 1.7.0 software (Caporaso et al., Nature Methods 2010; 7:335-6). Sequences were aligned using the Ribosomal Database Project (RDP) classifier (Wang et al., Applied and Environmental Microbiology 2007; 73:5261-7). Taxonomy was assigned based on the GreenGenes May 2013. For alpha diversity measurements, observed number of species and phylogenic distance (PD) were calculated. For beta diversity measurements, unweighted unifrac distances were calculated (Lozupone C, Knight R., Applied and Environmental Microbiology 2005; 71:8228-35). The unweighted unifrac distances were used for principal coordinates analysis (PCoA), and visualized using the KiNG software. Further sequencing analysis and correlations were performed using the phyloseq and ellipse packages in R.

pancreatic islets = test: NOD: pancreatic insulitis scoring in 6-week old mice; assay type: in vivo; settings: p<0.05
Method: Pancreata from 6-week-old control, STAT and PAT mice were fixed in modified Bouin's fixative (17 ml saturated aqueous picric acid, 1 ml glacial acetic acid, 2 ml 38-40% formalin) and paraffin embedded, cut, and stained with Aldehyde Fuchsin for insulitis scoring (Leiter, Curr Protoc Immunol. 2001; Chapter 15:Unit 15 9). Five sections were made for each pancreas. Each of the sections is 5 microns thick with a 70 microns gap between sections. Insulitis was scored on a scale of 0-4: 0, normal islet; 1, peri-insular leukocyte aggregates; 2, leukocyte infiltration <25%; 3, leukocyte infiltration >25%, but <75%; 4, leukocyte infiltration >75% and β-cell destruction. For each mouse, an insulitis score was calculated based on the following formula: (total score for all islets)/(4×number of islets examined) (Forestier et al., Journal of immunology. 2007; 178, 1415). […] The most severely affected islet was scored from each section. Insulitis was scored on a scale of 0-4: 0, normal islet; 1, peri-insular leukocyte aggregates; 2, leukocyte infiltration <25%; 3, leukocyte infiltration >25%, but <75%; 4, leukocyte infiltration >75% and β-cell destruction, according to standard criteria. For the females, we scored at least 24 islets per group (5 mice per group). […] For the males, 25 islets were scored for the control and PAT group (5 mice per group), and 15 islets from the STAT group (3 mice). […]

Structure (SMILES) | Akkermansia muciniphila (species level) ([1]; STAT male cecal and ileal samples, vs controls (less than PAT)) | prevalence of Bifidobacterium sp. ([1]; STAT-antibiotic-treated NOD mice vs controls) | fecal microbial community structure (PCoA, unweighted unifrac) ([1]; males and females) | bloom in Verrucomicrobia ([1]; cecal and ileal samples from male STAT mice) | abundance of all 3 named Bifidobacterium species ([1]; females) | OTU richness ([1]; females, only at 3 weeks of age, vs controls) | OTU richness ([1]; males, at 3 and 6 weeks of age, vs controls) | islet inflammation (insulitis score 0-4) (pancreatic islets; 6-week old NOD females, vs controls) | cecal and ileal microbial composition ([1]; 6-week old NOD mice, Adonis test) | Bacteroides ([1]; PAT samples after the first antibiotic pulse) | Verrucomicrobia (phylum level) ([1]; PAT samples after the first antibiotic pulse, vs control) | Akkermansia muciniphila (species level) ([1]; PAT samples starting at 3 weeks) | Phylogenic diversity (PD) ([1]; all sample times, all sample types, males and females, vs controls) | OTU richness ([1]; all sample times, all sample types, males and females, vs controls, FDR p<0.05) | relative abundance of Bifidobacterium genus ([1]; females and males) | relative abundance of three detectable Bifidobacterium species (B. animalis, B. adolescentis, B. pseudolongum) ([1]; females and males) | relative abundance of unnamed Bifidobacterium species ([1]; females and males) | intragroup beta diversity (unweighted Unifrac distance) ([1]; male NOD mice, vs controls) | insulitis (score 0-4) (pancreatic islets; 6-week old NOD males, vs control or STAT males)
CC1(C)S[C@@H]2[C@H](NC(=O)COc3ccccc3)C(=O)N2[C@H]1C(=O)[O-].[K+] [STAT, penicillin VK] | more | not different | essentially overlap | greater than in controls but less than in PAT | increased abundance | significantly lower | significantly lower | significantly more |  |  |  |  |  |  |  |  |  |  | 
CC[C@H]1OC(=O)C[C@@H](O)[C@H](C)[C@@H](O[C@@H]2O[C@H](C)[C@@H](O[C@H]3C[C@@](C)(O)[C@@H](O)[C@H](C)O3)[C@H](N(C)C)[C@H]2O)[C@@H](CC=O)C[C@@H](C)C(=O)/C=C/C(C)=C/[C@@H]1CO[C@@H]1O[C@H](C)[C@@H](O)[C@@H](OC)[C@H]1OC [Tylosin, Tylosin tartrate] |  |  | cluster distinctly from controls |  |  |  |  |  | significantly alters | decrease | large bloom | large bloom | lower | lower | decreases | decreases | decreases | lower | significantly more
